The source of these data is patent publication US20240132522A1, “HETEROCYCLIC COMPOUNDS AND METHODS OF USE THEREOF” (1cBio, Inc., priority 2022, published 2024).

Where a name gives a salt, the structure may show the parent alone.

The term IC50 denotes the midpoint of a concentration-inhibition curve. Read a high IC50 as lower potency.

For assay [1], the system named is DLD-1 BRCA2(−/−) colorectal adenocarcinoma cells. In words: Cell viability assay (Cell Titer-Glo), DLD-1 BRCA2(−/−). Format: cell-based. To be noted: Homo sapiens, DLD-1, 168 h, 7 days, 200 cells/well. An excerpt: (§1) In some embodiments, the biological assay measures the effects that compounds of the present disclosure may have on the viability of cells, e.g., the viability of cancer cells. In some embodiments, DLD-1 wild-type and DLD-1 BRCA2(−/−) colorectal adenocarcinoma cells, an isogenic pair of cell lines differing in the presence and absence, respectively, of both BRCA2 alleles, are used to measure the effect of the disclosed compounds on the viability of cancer cells.
(§2) In some embodiments, the cells are harvested during the logarithmic growth period, counted, and seeded at a specified count in the wells of a 96- or 384-well cell culture plate. In some embodiments, after seeding, the cells are incubated, e.g., at 37° C., 5% CO2 overnight. In some embodiments, the cells are treated with compounds, e.g., with serially diluted test compounds at 8-11 concentrations within a desired concentration range, e.g., from 1 nM-10 μM, for the generation of dose-response curves. In some embodiments, the plate is further incubated, e.g., for another 3-7 days in a humidified incubator at 37° C. and 5% CO2. In some embodiments, cell viability is assessed by luminescence measurement after addition of Cell Titer-Glo reagent (Promega, Madison, Wis.) according to the manufacturer's instructions. In some embodiments, cell viability IC50 values are calculated using XLFit, equation 201: y=A+((B−A)/(1+((x/C)^D))), where A=bottom, B=top, C=IC50, and D=slope. In some embodiments, the effects of the test compounds on the viability of other cell lines such as MDA-MB-436, MDA-MB-231, SUM149PT, HCC1395, and UWB1.289 are determined in an analogous method.
(§3) Compounds of the present disclosure were tested for their effects on the viability of cancer cells. DLD-1 wild-type and DLD-1 BRCA2(−/−) colorectal adenocarcinoma cells, an isogenic pair of cell lines differing in the presence and absence, respectively, of both BRCA2 alleles, were used. The cells were harvested during the logarithmic growth period, counted, and seeded at 50 cells/well for DLD-1 wild-type and 200 cells/well for DLD-1 BRCA2(−/−) in a 384-well cell culture plate. After seeding, cells were incubated at 37° C., 5% CO2 overnight. Cells were treated with serially diluted test compounds at 10 concentrations from 1.5 nM-30 μM) for generation of dose response curves. The plate was further incubated for another 7 days in a humidified incubator at 37° C. and 5% CO2. Cell viability was assessed by luminescence measurement after addition of Cell Titer-Glo reagent (Promega, Madison, Wis.) according to the manufacturer's instructions. Cell viability IC50 values were calculated using XLFit, equation 201: y=A+((B−A)/(1+((x/C)^D))), where A=bottom, B=top, C=IC50, and D=slope. IC50 values are shown in Table B and are presented in ranges, in which “+++”<300 nM, 300 nM≤“++”<3000 nM, and “+”≥3000 nM. Effects of the test compounds on the viability of other cell lines such as MDA-MB-436, MDA-MB-231, SUM149PT, HCC1395, and UWB1.289 are determined in an analogous method.
Background: Cellular ATP, detected with luciferase, serves as a proxy for viable cell number.

The subject of assay [2] is DLD-1 wild-type colorectal adenocarcinoma cells. In words: Cell viability assay (Cell Titer-Glo), DLD-1 wild-type. Format: cell-based. To be noted: Homo sapiens, DLD-1, 168 h, 7 days, 50 cells/well.
From the text: as §1, §2, §3

Turning to `CCc1cc2ncc(CN3CCCN(c4ccc(C(=O)NC)nc4)CC3)cc2[nH]c1=O` [Compound No. 6, 5-(4-((7-ethyl-6-oxo-5H-1,5-naphthyridin-3-yl)methyl)-1,4-diazepan-1-yl)-N-methylpyridine-2-carboxamide], the half-inhibitory concentration (IC50) in assay [1] and in assay [2] was at least 3 µM in each case.

Consider `CCc1cc2ncc(CN3CC4CN(c5ccc(C(=O)NC)nc5)CC4C3)cc2[nH]c1=O` (centres unmarked) [Compound No. 7, 5-(5-((7-ethyl-6-oxo-5,6-dihydro-1,5-naphthyridin-3-yl)methyl)hexahydropyrrolo[3,4-c]pyrrol-2(1H)-yl)-N-methylpicolinamide], for which the IC50 in assay [1] was 0.3 to 3 µM; in assay [2], at least 3 µM.

For `CCc1cc2ncc(CN3CC4(C3)CN(c3ccc(C(=O)NC)nc3)C4)cc2[nH]c1=O` [Compound No. 9, 5-(6-((7-ethyl-6-oxo-5,6-dihydro-1,5-naphthyridin-3-yl)methyl)-2,6-diazaspiro[3.3]heptan-2-yl)-N-methylpicolinamide formate], the IC50 in assay [1] and in assay [2] was at least 3 µM in each case.

Take `CCc1cc2ncc(CNC3CC(Nc4ccc(C(=O)NC)nc4)C3)cc2[nH]c1=O` (centres unmarked) [Compound No. 29, 5-((3-(((7-ethyl-6-oxo-5,6-dihydro-1,5-naphthyridin-3-yl)methyl)amino)cyclobutyl)amino)-N-methylpicolinamide]: the concentration for half-maximal inhibition (IC50) in assay [1] and in assay [2] was at least 3 µM each time.
